#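 How tested: cells in 96-well plates exposed to compound for 48 hours at five concentrations. GI50 marks 50% less growth.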 Activity calls are given as the source filed them. Cut-off read from the data, not from the text of the source: active = GI50 up to about 1.1 µM and inactive = higher.
# Tests used:
# Assay in all cases: inhibition of tumour cell growth, NCI panel, 48 h
# IGROV-1 = system: IGROV-1
# MOLT-4 = system: MOLT-4
# UACC-257 = system: UACC-257
# SF-539 = system: SF-539
# COLO 205 = system: COLO 205
# SR = system: SR
# PC-3 = system: PC-3
# K562 = system: K562
# LOX IMVI = system: LOX IMVI
# BT-549 = system: BT-549
# HOP-92 = system: HOP-92
# OVCAR-4 = system: OVCAR-4
# A549 = system: A549
# UO-31 = system: UO-31
# SK-MEL-5 = system: SK-MEL-5
# OVCAR-5 = system: OVCAR-5
# OVCAR-8 = system: OVCAR-8
# MDA-N = system: MDA-N
# HL-60 = system: HL-60
# MCF7 = system: MCF7
# Malme-3M = system: Malme-3M
# RXF 393 = system: RXF 393
# HCT-15 = system: HCT-15
# KM12 = system: KM12
# MDA-MB-435 = system: MDA-MB-435
# A498 = system: A498
# SNB-19 = system: SNB-19
# UACC-62 = system: UACC-62
# T47D = system: T47D
# SF-295 = system: SF-295
# CCRF-CEM = system: CCRF-CEM
# NCI-H226 = system: NCI-H226
# SF-268 = system: SF-268
# Hs-578T = system: Hs-578T
# 786-0 = system: 786-0
# U-251 = system: U-251
# SW-620 = system: SW-620
# HOP-62 = system: HOP-62
# DU-145 = system: DU-145
# SK-MEL-28 = system: SK-MEL-28
# M14 = system: M14
# HCT-116 = system: HCT-116
# NCI-H460 = system: NCI-H460
# HT-29 = system: HT-29
# SK-MEL-2 = system: SK-MEL-2
# NCI/ADR-RES = system: NCI/ADR-RES
# SN12C = system: SN12C
# NCI-H23 = system: NCI-H23
# EKVX = system: EKVX
# SK-OV-3 = system: SK-OV-3
# SNB-75 = system: SNB-75
# CAKI-1 = system: CAKI-1
# RPMI-8226 = system: RPMI-8226
# HCC 2998 = system: HCC 2998
# MDA-MB-231 = system: MDA-MB-231
# OVCAR-3 = system: OVCAR-3
# NCI-H522 = system: NCI-H522
# TK-10 = system: TK-10
# ACHN = system: ACHN
smiles,measurement,setting,value
CCOC(=O)c1cc(Br)c(-c2onc(C)c2Br)[nH]1,GI50,IGROV-1,40.2 µM (inactive)
same,GI50,MOLT-4,> 100 µM (inactive)
same,GI50,UACC-257,93.5 µM (inactive)
same,GI50,SF-539,31.6 µM (inactive)
same,GI50,COLO 205,> 100 µM (inactive)
same,GI50,SR,> 100 µM (inactive)
same,GI50,PC-3,> 100 µM (inactive)
same,GI50,K562,> 100 µM (inactive)
same,GI50,LOX IMVI,98.6 µM (inactive)
same,GI50,BT-549,43 µM (inactive)
same,GI50,HOP-92,48.1 µM (inactive)
same,GI50,OVCAR-4,88.1 µM (inactive)
same,GI50,A549,56.1 µM (inactive)
same,GI50,UO-31,> 100 µM (inactive)
same,GI50,SK-MEL-5,42.1 µM (inactive)
same,GI50,OVCAR-5,> 100 µM (inactive)
same,GI50,OVCAR-8,27.6 µM (inactive)
same,GI50,MDA-N,> 100 µM (inactive)
same,GI50,HL-60,> 100 µM (inactive)
same,GI50,MCF7,> 100 µM (inactive)
same,GI50,Malme-3M,34.4 µM (inactive)
same,GI50,RXF 393,16.7 µM (inactive)
same,GI50,HCT-15,> 100 µM
same,GI50,KM12,> 100 µM (inactive)
same,GI50,MDA-MB-435,> 100 µM (inactive)
same,GI50,A498,48.2 µM (inactive)
same,GI50,SNB-19,24.9 µM (inactive)
same,GI50,UACC-62,36.9 µM (inactive)
same,GI50,T47D,> 100 µM (inactive)
same,GI50,SF-295,43.1 µM (inactive)
same,GI50,CCRF-CEM,> 100 µM (inactive)
same,GI50,NCI-H226,30.1 µM (inactive)
same,GI50,SF-268,41.4 µM (inactive)
same,GI50,Hs-578T,26.7 µM (inactive)
same,GI50,786-0,21.6 µM (inactive)
same,GI50,U-251,19.1 µM (inactive)
same,GI50,SW-620,> 100 µM (inactive)
same,GI50,HOP-62,18.3 µM (inactive)
same,GI50,DU-145,> 100 µM (inactive)
same,GI50,SK-MEL-28,> 100 µM (inactive)
same,GI50,M14,66.2 µM (inactive)
same,GI50,HCT-116,28.8 µM (inactive)
same,GI50,NCI-H460,65.6 µM (inactive)
same,GI50,HT-29,> 100 µM (inactive)
same,GI50,SK-MEL-2,80.7 µM (inactive)
same,GI50,NCI/ADR-RES,40.6 µM (inactive)
same,GI50,SN12C,80.7 µM (inactive)
same,GI50,NCI-H23,49.3 µM (inactive)
same,GI50,EKVX,27.9 µM (inactive)
same,GI50,SK-OV-3,25.9 µM (inactive)
same,GI50,SNB-75,> 100 µM (inactive)
same,GI50,CAKI-1,45.7 µM (inactive)
same,GI50,RPMI-8226,> 100 µM (inactive)
same,GI50,HCC 2998,53.7 µM (inactive)
same,GI50,MDA-MB-231,17.1 µM (inactive)
same,GI50,OVCAR-3,> 100 µM (inactive)
Fc1ccccc1-c1cc(S)c2cc3c(cc2n1)OCO3,GI50,IGROV-1,7.93 µM (inactive)
same,GI50,MOLT-4,9.62 µM (inactive)
same,GI50,UACC-257,8.47 µM (inactive)
same,GI50,SF-539,7.18 µM (inactive)
same,GI50,COLO 205,28.6 µM (inactive)
same,GI50,SR,4.34 µM (inactive)
same,GI50,PC-3,6.08 µM (inactive)
same,GI50,K562,13.1 µM (inactive)
same,GI50,LOX IMVI,10.9 µM (inactive)
same,GI50,BT-549,61 µM (inactive)
same,GI50,HOP-92,> 45.7 µM (inactive)
same,GI50,OVCAR-4,> 100 µM (inactive)
same,GI50,A549,5.52 µM (inactive)
same,GI50,UO-31,27.5 µM (inactive)
same,GI50,SK-MEL-5,3.63 µM (inactive)
same,GI50,OVCAR-5,> 51.3 µM (inactive)
same,GI50,OVCAR-8,17.8 µM (inactive)
same,GI50,MDA-N,3.03 µM (inactive)
same,GI50,MCF7,4.88 µM (inactive)
same,GI50,Malme-3M,11.7 µM (inactive)
same,GI50,RXF 393,> 54.2 µM (inactive)
same,GI50,NCI-H522,13.8 µM (inactive)
same,GI50,HCT-15,5.65 µM
same,GI50,KM12,4.91 µM (inactive)
same,GI50,MDA-MB-435,3.59 µM (inactive)
same,GI50,A498,10.4 µM (inactive)
same,GI50,SNB-19,15.2 µM (inactive)
same,GI50,UACC-62,3.71 µM (inactive)
same,GI50,T47D,28.1 µM (inactive)
same,GI50,SF-295,7.91 µM (inactive)
same,GI50,CCRF-CEM,13.4 µM (inactive)
same,GI50,NCI-H226,19.2 µM (inactive)
same,GI50,TK-10,> 48.3 µM (inactive)
same,GI50,SF-268,> 44.8 µM (inactive)
same,GI50,Hs-578T,5.24 µM (inactive)
same,GI50,786-0,10.4 µM (inactive)
same,GI50,ACHN,38 µM (inactive)
same,GI50,U-251,4.33 µM (inactive)
same,GI50,SW-620,5.85 µM (inactive)
same,GI50,HOP-62,> 70.5 µM (inactive)
same,GI50,DU-145,13 µM (inactive)
same,GI50,SK-MEL-28,27.9 µM (inactive)
same,GI50,M14,6.61 µM (inactive)
same,GI50,HCT-116,7.08 µM (inactive)
same,GI50,NCI-H460,4.57 µM (inactive)
same,GI50,HT-29,17.2 µM (inactive)
same,GI50,SK-MEL-2,7.69 µM (inactive)
same,GI50,NCI/ADR-RES,4.26 µM (inactive)
same,GI50,SN12C,34.2 µM (inactive)
same,GI50,NCI-H23,9.55 µM (inactive)
same,GI50,EKVX,10.5 µM (inactive)
same,GI50,SK-OV-3,16.1 µM (inactive)
same,GI50,CAKI-1,9.93 µM (inactive)
same,GI50,HCC 2998,5.53 µM (inactive)
same,GI50,MDA-MB-231,> 56.1 µM (inactive)
same,GI50,OVCAR-3,10.9 µM (inactive)

# From ChEMBL document CHEMBL1201862, “PubChem BioAssay data set” (2004)
